{
  "source": "the kinase profiling compilation of Christmann-Franck et al. (2016)",
  "assay_in_all_cases": "KINOMEscan competition binding",
  "details_in_all_cases": "compound 1.0 µM",
  "key": {"ADCK4 (human)": {"biological_target": "ADCK4 (human) (UniProt Q96D53)", "sequence (Q96D53 whole entry, looked up)": "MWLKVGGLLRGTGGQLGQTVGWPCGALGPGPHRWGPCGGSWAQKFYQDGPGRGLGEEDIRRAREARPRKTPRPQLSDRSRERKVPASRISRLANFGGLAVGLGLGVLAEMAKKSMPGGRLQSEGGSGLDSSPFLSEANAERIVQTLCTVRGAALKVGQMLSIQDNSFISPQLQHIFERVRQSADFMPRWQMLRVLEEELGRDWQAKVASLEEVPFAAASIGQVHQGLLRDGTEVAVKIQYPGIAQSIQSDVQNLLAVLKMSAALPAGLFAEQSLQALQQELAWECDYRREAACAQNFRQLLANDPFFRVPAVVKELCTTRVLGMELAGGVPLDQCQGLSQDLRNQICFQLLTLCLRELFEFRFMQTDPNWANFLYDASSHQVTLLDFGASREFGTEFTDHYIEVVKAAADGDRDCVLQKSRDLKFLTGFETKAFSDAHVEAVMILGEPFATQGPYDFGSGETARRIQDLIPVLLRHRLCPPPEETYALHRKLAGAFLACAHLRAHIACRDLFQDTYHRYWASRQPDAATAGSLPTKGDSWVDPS"}, "BMX (human)": {"biological_target": "BMX (human) (UniProt P51813)"}, "CDK3 (human)": {"biological_target": "CDK3 (human) (UniProt Q00526)"}, "CLK2 (human)": {"biological_target": "CLK2 (human) (UniProt P49760)"}, "CLK4 (human)": {"biological_target": "CLK4 (human) (UniProt Q9HAZ1)"}, "CSK (human)": {"biological_target": "CSK (human) (UniProt P41240)"}, "CSNK1E (human)": {"biological_target": "CSNK1E (human) (UniProt P49674)"}, "CSNK1G3 (human)": {"biological_target": "CSNK1G3 (human) (UniProt Q9Y6M4)"}, "DCLK2 (human)": {"biological_target": "DCLK2 (human) (UniProt Q8N568)"}, "DMPK (human)": {"biological_target": "DMPK (human) (UniProt Q09013)"}, "FGR (human)": {"biological_target": "FGR (human) (UniProt P09769)"}, "FRK (human)": {"biological_target": "FRK (human) (UniProt P42685)"}, "HCK (human)": {"biological_target": "HCK (human) (UniProt P08631)"}, "HIPK4 (human)": {"biological_target": "HIPK4 (human) (UniProt Q8NE63)", "sequence (Q8NE63 whole entry, looked up)": "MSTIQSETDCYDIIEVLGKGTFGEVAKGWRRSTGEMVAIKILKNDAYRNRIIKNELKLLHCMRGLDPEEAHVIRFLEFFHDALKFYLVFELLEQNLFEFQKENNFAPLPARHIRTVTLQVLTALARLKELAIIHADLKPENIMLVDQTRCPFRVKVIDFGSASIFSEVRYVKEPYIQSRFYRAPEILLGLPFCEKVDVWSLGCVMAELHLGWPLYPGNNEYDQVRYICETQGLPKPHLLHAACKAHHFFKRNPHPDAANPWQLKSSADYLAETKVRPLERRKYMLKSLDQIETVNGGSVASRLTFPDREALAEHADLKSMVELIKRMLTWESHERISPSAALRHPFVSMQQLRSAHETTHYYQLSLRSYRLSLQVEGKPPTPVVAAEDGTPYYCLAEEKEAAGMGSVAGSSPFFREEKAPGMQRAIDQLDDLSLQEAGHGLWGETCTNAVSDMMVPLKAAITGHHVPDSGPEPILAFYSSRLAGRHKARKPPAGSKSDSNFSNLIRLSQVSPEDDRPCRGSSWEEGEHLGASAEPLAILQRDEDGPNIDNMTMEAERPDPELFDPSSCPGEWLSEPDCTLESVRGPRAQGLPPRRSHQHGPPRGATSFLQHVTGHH"}, "IRAK3 (human)": {"biological_target": "IRAK3 (human) (UniProt Q9Y616)"}, "[1]": {"tested_on": "KIT (human), P10721 [L576P]"}, "[2]": {"tested_on": "KIT (human), P10721 [V559D/T670I]"}, "[3]": {"tested_on": "KIT (human), P10721 [V559D]"}, "MAPK6 (human)": {"biological_target": "MAPK6 (human) (UniProt Q16659)"}, "MAPK8 (human)": {"biological_target": "MAPK8 (human) (UniProt P45983)"}, "MATK (human)": {"biological_target": "MATK (human) (UniProt P42679)"}, "MST4 (human)": {"biological_target": "MST4 (human) (UniProt Q9P289)"}, "MYLK (human)": {"biological_target": "MYLK (human) (UniProt Q15746)"}, "MYLK2 (human)": {"biological_target": "MYLK2 (human) (UniProt Q9H1R3)"}, "NUAK1 (human)": {"biological_target": "NUAK1 (human) (UniProt O60285)"}, "[4]": {"tested_on": "PIK3CA (human), P42336 [Q546K]"}, "PIK3CG (human)": {"biological_target": "PIK3CG (human) (UniProt P48736)"}, "PKMYT1 (human)": {"biological_target": "PKMYT1 (human) (UniProt Q99640)"}, "PKN3 (M.tuberculosis)": {"biological_target": "PKN3 (M.tuberculosis) (UniProt Q6P5Z2)", "sequence (Q6P5Z2 whole entry, looked up)": "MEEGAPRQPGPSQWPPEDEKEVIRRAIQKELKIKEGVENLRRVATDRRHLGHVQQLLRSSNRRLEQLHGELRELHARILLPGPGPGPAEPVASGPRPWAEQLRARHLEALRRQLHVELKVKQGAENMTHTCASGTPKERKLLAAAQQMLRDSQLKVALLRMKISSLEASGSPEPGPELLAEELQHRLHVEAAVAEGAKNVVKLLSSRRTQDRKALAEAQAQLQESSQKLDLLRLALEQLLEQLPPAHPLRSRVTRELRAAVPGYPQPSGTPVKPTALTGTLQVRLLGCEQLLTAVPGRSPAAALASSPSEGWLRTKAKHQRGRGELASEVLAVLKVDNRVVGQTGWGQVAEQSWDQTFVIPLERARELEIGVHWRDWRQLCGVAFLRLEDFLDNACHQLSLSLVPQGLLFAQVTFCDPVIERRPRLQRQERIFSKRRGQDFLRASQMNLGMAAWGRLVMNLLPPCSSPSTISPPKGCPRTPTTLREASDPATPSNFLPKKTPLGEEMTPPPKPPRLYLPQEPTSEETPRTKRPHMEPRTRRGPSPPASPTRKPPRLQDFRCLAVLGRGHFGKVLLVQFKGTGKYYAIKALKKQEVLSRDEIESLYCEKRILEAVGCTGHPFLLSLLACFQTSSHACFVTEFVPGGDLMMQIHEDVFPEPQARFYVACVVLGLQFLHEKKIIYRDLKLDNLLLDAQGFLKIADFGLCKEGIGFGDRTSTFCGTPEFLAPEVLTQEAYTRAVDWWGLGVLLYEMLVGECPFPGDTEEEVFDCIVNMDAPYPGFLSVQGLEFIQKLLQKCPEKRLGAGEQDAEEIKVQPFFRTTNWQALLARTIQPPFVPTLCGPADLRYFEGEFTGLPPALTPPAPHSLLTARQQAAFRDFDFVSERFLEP"}, "PRKCH (human)": {"biological_target": "PRKCH (human) (UniProt P24723)"}, "PRKD3 (human)": {"biological_target": "PRKD3 (human) (UniProt O94806)", "sequence (O94806 whole entry, looked up)": "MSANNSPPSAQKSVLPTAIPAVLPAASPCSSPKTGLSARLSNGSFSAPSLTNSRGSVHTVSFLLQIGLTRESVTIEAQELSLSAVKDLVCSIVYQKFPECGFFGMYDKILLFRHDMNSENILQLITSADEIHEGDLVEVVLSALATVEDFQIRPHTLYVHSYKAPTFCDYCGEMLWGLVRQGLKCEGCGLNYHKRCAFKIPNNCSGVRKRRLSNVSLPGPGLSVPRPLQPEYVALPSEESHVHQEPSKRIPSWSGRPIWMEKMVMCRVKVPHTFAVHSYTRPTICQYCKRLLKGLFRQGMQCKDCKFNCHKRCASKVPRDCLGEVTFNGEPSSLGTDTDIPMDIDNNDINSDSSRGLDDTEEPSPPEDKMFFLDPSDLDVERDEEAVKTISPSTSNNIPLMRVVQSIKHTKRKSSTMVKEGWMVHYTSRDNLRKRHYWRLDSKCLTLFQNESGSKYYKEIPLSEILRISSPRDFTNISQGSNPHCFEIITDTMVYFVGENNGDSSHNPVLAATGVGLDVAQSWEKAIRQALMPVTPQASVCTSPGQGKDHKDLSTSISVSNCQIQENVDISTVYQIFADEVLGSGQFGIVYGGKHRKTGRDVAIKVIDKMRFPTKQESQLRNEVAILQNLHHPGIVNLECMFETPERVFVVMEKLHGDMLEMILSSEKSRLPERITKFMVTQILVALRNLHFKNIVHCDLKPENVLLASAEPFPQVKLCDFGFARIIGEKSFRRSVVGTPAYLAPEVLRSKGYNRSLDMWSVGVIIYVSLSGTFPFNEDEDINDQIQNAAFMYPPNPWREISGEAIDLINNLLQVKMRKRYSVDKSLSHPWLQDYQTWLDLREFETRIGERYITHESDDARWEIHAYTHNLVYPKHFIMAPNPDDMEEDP"}, "PRKG1 (human)": {"biological_target": "PRKG1 (human) (UniProt Q13976)"}, "SBK1 (human)": {"biological_target": "SBK1 (human) (UniProt Q52WX2)"}, "SNRK (human)": {"biological_target": "SNRK (human) (UniProt Q9NRH2)"}, "SRC (human)": {"biological_target": "SRC (human) (UniProt P12931)"}, "SRPK2 (human)": {"biological_target": "SRPK2 (human) (UniProt P78362)"}, "STK16 (human)": {"biological_target": "STK16 (human) (UniProt O75716)"}, "STK25 (human)": {"biological_target": "STK25 (human) (UniProt O00506)"}, "SYK (human)": {"biological_target": "SYK (human) (UniProt P43405)"}, "TBK1 (human)": {"biological_target": "TBK1 (human) (UniProt Q9UHD2)"}, "TGFBR1 (human)": {"biological_target": "TGFBR1 (human) (UniProt P36897)"}, "TRPM6 (human)": {"biological_target": "TRPM6 (human) (UniProt Q9BX84)", "sequence (Q9BX84 whole entry, looked up)": "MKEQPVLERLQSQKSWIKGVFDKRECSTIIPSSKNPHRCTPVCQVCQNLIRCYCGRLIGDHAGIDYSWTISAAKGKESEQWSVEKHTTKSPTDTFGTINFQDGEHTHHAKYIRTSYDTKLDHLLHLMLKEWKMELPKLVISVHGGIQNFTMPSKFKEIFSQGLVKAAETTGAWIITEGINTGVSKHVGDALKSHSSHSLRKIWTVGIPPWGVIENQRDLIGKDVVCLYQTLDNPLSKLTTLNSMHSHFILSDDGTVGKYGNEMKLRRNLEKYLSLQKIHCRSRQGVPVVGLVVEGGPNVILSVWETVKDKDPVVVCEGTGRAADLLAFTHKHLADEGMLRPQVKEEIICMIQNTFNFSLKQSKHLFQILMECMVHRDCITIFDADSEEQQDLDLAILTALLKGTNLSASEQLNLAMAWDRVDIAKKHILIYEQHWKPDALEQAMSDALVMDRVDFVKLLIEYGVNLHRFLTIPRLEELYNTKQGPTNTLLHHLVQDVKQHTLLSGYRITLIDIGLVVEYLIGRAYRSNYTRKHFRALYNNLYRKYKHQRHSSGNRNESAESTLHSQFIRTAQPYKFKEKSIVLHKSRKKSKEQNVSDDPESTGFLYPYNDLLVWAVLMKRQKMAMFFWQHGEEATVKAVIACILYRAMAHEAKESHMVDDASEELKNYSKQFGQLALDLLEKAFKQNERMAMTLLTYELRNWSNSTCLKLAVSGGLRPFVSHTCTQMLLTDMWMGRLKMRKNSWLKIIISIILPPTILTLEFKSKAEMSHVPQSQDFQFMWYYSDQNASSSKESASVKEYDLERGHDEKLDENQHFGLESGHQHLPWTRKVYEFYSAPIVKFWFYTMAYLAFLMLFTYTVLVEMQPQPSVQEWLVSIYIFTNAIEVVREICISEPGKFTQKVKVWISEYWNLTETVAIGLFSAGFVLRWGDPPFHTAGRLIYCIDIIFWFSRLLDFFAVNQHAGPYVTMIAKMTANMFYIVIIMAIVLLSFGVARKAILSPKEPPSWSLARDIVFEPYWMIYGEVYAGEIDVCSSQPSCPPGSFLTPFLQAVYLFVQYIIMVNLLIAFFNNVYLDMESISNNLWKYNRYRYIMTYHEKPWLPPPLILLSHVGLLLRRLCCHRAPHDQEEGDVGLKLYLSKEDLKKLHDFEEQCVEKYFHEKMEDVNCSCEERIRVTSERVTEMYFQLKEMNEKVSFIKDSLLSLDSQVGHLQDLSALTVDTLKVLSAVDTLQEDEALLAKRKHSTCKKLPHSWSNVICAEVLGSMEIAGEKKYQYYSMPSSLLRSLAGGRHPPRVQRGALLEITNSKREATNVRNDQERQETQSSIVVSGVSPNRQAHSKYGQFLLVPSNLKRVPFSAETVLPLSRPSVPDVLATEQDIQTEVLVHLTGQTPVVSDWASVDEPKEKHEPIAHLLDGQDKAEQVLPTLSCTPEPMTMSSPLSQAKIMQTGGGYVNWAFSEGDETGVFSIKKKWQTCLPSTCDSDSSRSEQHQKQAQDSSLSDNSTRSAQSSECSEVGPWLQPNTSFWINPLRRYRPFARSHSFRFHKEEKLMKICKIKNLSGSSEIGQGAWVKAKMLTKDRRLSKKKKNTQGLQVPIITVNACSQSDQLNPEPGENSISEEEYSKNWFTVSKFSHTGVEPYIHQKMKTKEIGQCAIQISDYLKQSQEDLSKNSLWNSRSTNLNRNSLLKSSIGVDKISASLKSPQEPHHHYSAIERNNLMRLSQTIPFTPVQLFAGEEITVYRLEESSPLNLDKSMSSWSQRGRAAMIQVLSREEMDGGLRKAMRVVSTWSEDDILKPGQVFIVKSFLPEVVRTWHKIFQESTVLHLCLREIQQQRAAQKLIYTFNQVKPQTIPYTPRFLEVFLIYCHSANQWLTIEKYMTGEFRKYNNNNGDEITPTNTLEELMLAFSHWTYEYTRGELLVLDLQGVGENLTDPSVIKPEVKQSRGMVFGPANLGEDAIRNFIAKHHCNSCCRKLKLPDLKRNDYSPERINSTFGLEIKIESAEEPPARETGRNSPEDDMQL"}, "ULK2 (human)": {"biological_target": "ULK2 (human) (UniProt Q8IYT8)"}, "WEE2 (human)": {"biological_target": "WEE2 (human) (UniProt P0C1S8)"}},
  "data": [
    {"compound": "COCCNCCCn1c(C(=O)CF)c(-c2ccc(C)cc2)c2c(N)ncnc21", "values": [
      {"measurement": "kinase still bound, per cent of control", "setting": "ADCK4 (human)", "value": 93, "unit": "%"},
      {"measurement": "kinase still bound, per cent of control", "setting": "BMX (human)", "value": 98, "unit": "%"},
      {"measurement": "kinase still bound, per cent of control", "setting": "CDK3 (human)", "value": 100, "unit": "%"},
      {"measurement": "kinase still bound, per cent of control", "setting": "CLK2 (human)", "value": 100, "unit": "%"},
      {"measurement": "kinase still bound, per cent of control", "setting": "CLK4 (human)", "value": 91, "unit": "%"},
      {"measurement": "kinase still bound, per cent of control", "setting": "CSK (human)", "value": 95, "unit": "%"},
      {"measurement": "kinase still bound, per cent of control", "setting": "CSNK1E (human)", "value": 87, "unit": "%"},
      {"measurement": "kinase still bound, per cent of control", "setting": "CSNK1G3 (human)", "value": 98, "unit": "%"},
      {"measurement": "kinase still bound, per cent of control", "setting": "DCLK2 (human)", "value": 100, "unit": "%"},
      {"measurement": "kinase still bound, per cent of control", "setting": "DMPK (human)", "value": 84, "unit": "%"},
      {"measurement": "kinase still bound, per cent of control", "setting": "FGR (human)", "value": 93, "unit": "%"},
      {"measurement": "kinase still bound, per cent of control", "setting": "FRK (human)", "value": 81, "unit": "%"},
      {"measurement": "kinase still bound, per cent of control", "setting": "HCK (human)", "value": 100, "unit": "%"},
      {"measurement": "kinase still bound, per cent of control", "setting": "HIPK4 (human)", "value": 95, "unit": "%"},
      {"measurement": "kinase still bound, per cent of control", "setting": "IRAK3 (human)", "value": 86, "unit": "%"},
      {"measurement": "kinase still bound, per cent of control", "setting": "[1]", "value": 71, "unit": "%"},
      {"measurement": "kinase still bound, per cent of control", "setting": "[2]", "value": 86, "unit": "%"},
      {"measurement": "kinase still bound, per cent of control", "setting": "[3]", "value": 73, "unit": "%"},
      {"measurement": "kinase still bound, per cent of control", "setting": "MAPK6 (human)", "value": 100, "unit": "%"},
      {"measurement": "kinase still bound, per cent of control", "setting": "MAPK8 (human)", "value": 96, "unit": "%"},
      {"measurement": "kinase still bound, per cent of control", "setting": "MATK (human)", "value": 100, "unit": "%"},
      {"measurement": "kinase still bound, per cent of control", "setting": "MST4 (human)", "value": 69, "unit": "%"},
      {"measurement": "kinase still bound, per cent of control", "setting": "MYLK (human)", "value": 100, "unit": "%"},
      {"measurement": "kinase still bound, per cent of control", "setting": "MYLK2 (human)", "value": 95, "unit": "%"},
      {"measurement": "kinase still bound, per cent of control", "setting": "NUAK1 (human)", "value": 98, "unit": "%"},
      {"measurement": "kinase still bound, per cent of control", "setting": "[4]", "value": 100, "unit": "%"},
      {"measurement": "kinase still bound, per cent of control", "setting": "PIK3CG (human)", "value": 100, "unit": "%"},
      {"measurement": "kinase still bound, per cent of control", "setting": "PKMYT1 (human)", "value": 86, "unit": "%"},
      {"measurement": "kinase still bound, per cent of control", "setting": "PKN3 (M.tuberculosis)", "value": 100, "unit": "%"},
      {"measurement": "kinase still bound, per cent of control", "setting": "PRKCH (human)", "value": 100, "unit": "%"},
      {"measurement": "kinase still bound, per cent of control", "setting": "PRKD3 (human)", "value": 100, "unit": "%"},
      {"measurement": "kinase still bound, per cent of control", "setting": "PRKG1 (human)", "value": 100, "unit": "%"},
      {"measurement": "kinase still bound, per cent of control", "setting": "SBK1 (human)", "value": 98, "unit": "%"},
      {"measurement": "kinase still bound, per cent of control", "setting": "SNRK (human)", "value": 99, "unit": "%"},
      {"measurement": "kinase still bound, per cent of control", "setting": "SRC (human)", "value": 98, "unit": "%"},
      {"measurement": "kinase still bound, per cent of control", "setting": "SRPK2 (human)", "value": 100, "unit": "%"},
      {"measurement": "kinase still bound, per cent of control", "setting": "STK16 (human)", "value": 100, "unit": "%"},
      {"measurement": "kinase still bound, per cent of control", "setting": "STK25 (human)", "value": 100, "unit": "%"},
      {"measurement": "kinase still bound, per cent of control", "setting": "SYK (human)", "value": 96, "unit": "%"},
      {"measurement": "kinase still bound, per cent of control", "setting": "TBK1 (human)", "value": 100, "unit": "%"},
      {"measurement": "kinase still bound, per cent of control", "setting": "TGFBR1 (human)", "value": 89, "unit": "%"},
      {"measurement": "kinase still bound, per cent of control", "setting": "TRPM6 (human)", "value": 81, "unit": "%"},
      {"measurement": "kinase still bound, per cent of control", "setting": "ULK2 (human)", "value": 90, "unit": "%"},
      {"measurement": "kinase still bound, per cent of control", "setting": "WEE2 (human)", "value": 100, "unit": "%"}
    ]}
  ]
}
